The values that follow come from patent US20100003250A1, “(2-ARYL-7H-PYRROLO[2,3-D]PYRIMIDIN-4-YL)MORPHOLINE COMPOUNDS, THEIR USE AS MTOR KINASE AND PI3 KINASE INHIBITORS, AND THEIR SYNTHESES” (Wyeth, priority 2008, published 2010).

Common to all, as to assay type: biochemical
One experiment deals with T1, mTOR Kinase (FLAG-TOR) (Homo sapiens, UniProt P42345).
T1 construct: FLAG
Briefly: mTOR kinase assay, purified enzyme, DELFIA format. As to conditions: 100 μM ATP, 1.25 μM His6-S6K; read-out: mTOR Kinase Median IC50.

The target of the next experiment is PI3Kα (Homo sapiens, UniProt P42336). Briefly: PI3K-alpha fluorescence polarization assay. As to conditions: 20 μM PIP2, 25 μM ATP; read-out: PI3Kα Median IC50.
Another experiment deals with PI3Kγ (Homo sapiens, UniProt P48736). Briefly: PI3K-gamma fluorescence polarization assay. As to conditions: 20 μM PIP2, 25 μM ATP; read-out: PI3Kγ Median IC50. Put shortly: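 Enzyme preincubated with compound in 20 mM HEPES pH 7.5, 2 mM MgCl2, 0.05% CHAPS, 0.01% βME; reaction started with substrate giving 20 μM diC8 PIP2 and 25 μM ATP final, run 30-60 min at room temperature. Stopped with TAMRA-labelled PIP3 detector probe plus GST-GRP; PIP3 formation read by fluorescence polarization after 90-110 min.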
Sequence of PI3Kγ (P48736 whole entry, species assumed): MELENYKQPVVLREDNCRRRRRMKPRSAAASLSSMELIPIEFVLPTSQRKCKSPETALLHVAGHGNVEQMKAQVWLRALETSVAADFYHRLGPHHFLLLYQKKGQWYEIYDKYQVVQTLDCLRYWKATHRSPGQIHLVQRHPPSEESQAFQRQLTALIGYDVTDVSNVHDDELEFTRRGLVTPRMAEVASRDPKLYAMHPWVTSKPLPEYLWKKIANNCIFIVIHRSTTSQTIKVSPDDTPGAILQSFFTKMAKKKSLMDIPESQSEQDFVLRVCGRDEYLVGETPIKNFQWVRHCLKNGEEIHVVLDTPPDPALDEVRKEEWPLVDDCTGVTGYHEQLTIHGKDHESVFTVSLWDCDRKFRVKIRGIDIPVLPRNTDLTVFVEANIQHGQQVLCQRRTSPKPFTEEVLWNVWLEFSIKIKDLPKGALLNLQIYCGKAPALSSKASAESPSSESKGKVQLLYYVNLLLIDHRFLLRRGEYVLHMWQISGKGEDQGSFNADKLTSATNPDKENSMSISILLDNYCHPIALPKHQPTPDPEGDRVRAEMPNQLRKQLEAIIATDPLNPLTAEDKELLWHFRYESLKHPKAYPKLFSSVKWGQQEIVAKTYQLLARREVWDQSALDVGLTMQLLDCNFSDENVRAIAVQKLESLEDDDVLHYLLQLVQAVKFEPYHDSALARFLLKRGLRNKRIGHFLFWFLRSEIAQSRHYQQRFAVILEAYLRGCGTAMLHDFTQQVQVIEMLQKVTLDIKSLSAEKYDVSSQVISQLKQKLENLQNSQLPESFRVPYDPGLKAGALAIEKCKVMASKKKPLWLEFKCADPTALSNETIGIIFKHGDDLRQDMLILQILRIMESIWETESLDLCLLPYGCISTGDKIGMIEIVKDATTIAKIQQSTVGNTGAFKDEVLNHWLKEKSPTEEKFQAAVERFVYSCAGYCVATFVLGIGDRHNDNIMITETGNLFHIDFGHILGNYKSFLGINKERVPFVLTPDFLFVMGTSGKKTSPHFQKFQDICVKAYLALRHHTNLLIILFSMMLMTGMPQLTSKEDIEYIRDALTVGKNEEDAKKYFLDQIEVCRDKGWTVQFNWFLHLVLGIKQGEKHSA

Sequence of PI3Kα (P42336 whole entry, species assumed): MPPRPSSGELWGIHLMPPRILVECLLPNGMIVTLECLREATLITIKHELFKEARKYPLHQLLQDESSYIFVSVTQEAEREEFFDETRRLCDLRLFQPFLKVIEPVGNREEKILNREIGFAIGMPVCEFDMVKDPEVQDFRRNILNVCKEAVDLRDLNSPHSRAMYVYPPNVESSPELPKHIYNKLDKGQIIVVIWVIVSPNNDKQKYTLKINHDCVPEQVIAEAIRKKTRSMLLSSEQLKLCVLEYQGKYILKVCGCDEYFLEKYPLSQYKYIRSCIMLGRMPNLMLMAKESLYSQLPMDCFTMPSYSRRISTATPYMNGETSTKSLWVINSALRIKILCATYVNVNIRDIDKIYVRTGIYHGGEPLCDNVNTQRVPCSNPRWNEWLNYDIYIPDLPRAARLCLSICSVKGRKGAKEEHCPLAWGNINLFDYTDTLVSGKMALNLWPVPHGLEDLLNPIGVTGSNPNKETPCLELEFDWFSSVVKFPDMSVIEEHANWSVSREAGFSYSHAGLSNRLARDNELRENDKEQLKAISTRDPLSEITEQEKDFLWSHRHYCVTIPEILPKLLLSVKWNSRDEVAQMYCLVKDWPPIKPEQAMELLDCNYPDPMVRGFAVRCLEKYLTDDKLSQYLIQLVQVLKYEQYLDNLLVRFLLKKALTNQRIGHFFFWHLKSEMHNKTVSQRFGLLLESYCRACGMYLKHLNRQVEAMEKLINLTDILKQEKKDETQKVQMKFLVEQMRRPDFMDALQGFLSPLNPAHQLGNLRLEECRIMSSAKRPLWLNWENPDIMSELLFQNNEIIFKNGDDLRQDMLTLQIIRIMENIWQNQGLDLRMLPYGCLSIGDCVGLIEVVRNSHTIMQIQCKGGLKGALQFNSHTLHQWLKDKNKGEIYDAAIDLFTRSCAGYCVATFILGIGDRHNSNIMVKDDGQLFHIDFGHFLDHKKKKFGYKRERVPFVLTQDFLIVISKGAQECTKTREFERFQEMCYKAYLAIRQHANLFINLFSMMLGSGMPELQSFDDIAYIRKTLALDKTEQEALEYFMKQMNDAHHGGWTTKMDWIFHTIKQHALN
Sequence of PI3Kα (P27986 whole entry partner, species assumed): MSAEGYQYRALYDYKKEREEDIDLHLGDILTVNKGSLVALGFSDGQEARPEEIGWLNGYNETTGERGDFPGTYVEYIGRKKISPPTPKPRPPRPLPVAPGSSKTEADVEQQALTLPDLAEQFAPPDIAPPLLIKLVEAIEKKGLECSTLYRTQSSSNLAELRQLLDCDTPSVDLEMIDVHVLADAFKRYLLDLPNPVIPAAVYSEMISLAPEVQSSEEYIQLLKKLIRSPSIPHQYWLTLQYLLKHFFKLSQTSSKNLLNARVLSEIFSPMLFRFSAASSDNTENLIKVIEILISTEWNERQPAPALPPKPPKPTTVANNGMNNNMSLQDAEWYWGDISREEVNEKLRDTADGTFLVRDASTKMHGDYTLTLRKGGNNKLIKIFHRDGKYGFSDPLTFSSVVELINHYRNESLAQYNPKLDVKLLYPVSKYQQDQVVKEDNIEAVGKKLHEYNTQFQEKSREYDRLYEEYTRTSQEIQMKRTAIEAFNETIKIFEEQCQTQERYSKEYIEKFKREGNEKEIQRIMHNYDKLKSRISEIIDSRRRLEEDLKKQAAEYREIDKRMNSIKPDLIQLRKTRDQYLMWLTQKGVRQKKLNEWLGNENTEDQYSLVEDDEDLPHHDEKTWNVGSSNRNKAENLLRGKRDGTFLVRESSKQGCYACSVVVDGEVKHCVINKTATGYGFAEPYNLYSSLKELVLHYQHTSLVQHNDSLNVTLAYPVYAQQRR

Consider `CN(C)CCNC(=O)Nc1ccc(-c2nc(N3CCOCC3)c3ccn(CC(F)(F)F)c3n2)cc1` [Compound 41, 1-[2-(dimethylamino)ethyl]-3-{4-[4-morpholin-4-yl-7-(2,2,2-trifluoroethyl)-7H-pyrrolo[2,3-d]pyrimidin-2-yl]phenyl}urea], for which the IC50 at mTOR Kinase (FLAG-TOR) is 110 nM; on PI3Kα it was 154 nM; on PI3Kγ, 664 nM.

As to `NC(=O)Nc1cccc(Cn2ccc3c(N4CCOCC4)nc(-c4cccc(CO)c4)nc32)c1` [Compound 19, 1-[3-({2-[3-(hydroxymethyl)phenyl]-4-morpholin-4-yl-7H-pyrrolo[2,3-d]pyrimidin-7-yl}methyl)phenyl]urea], the IC50 at mTOR Kinase (FLAG-TOR) turned out to be 435 nM; on PI3Kα, 99 nM; at PI3Kγ, 868 nM.

As to `CC(C)n1ccc2c(N3CCOCC3)nc(-c3ccc(NC(=O)Nc4ccc(C(=O)NCCN(C)C)cc4)cc3)nc21` [Compound 86, N-[2-(dimethylamino)ethyl]-4-({[4-(7-isopropyl-4-morpholin-4-yl-7H-pyrrolo[2,3-d]pyrimidin-2-yl)phenyl]carbamoyl}amino)benzamide], the IC50 came out at 0.38 nM at mTOR Kinase (FLAG-TOR), 1.7 nM on PI3Kα and 50 nM at PI3Kγ.

For `CC(C)n1ccc2c(N3CCOCC3)nc(-c3ccc(NC(=O)Nc4ccc(C(=O)O)cc4)cc3)nc21` [Compound 90, 4-({[4-(7-isopropyl-4-morpholin-4-yl-7H-pyrrolo[2,3-d]pyrimidin-2-yl)phenyl]carbamoyl}amino)benzoic acid], the IC50 on mTOR Kinase (FLAG-TOR) was found to be 0.81 nM; at PI3Kα, 25.7 nM; at PI3Kγ, 151 nM.

In the case of `CCn1ccc2c(N3CCOCC3)nc(-c3ccc(NC(=O)Nc4ccc(C(=O)N5CCSCC5)cc4)cc3)nc21` [Compound 71, 1-[4-(7-ethyl-4-morpholin-4-yl-7H-pyrrolo[2,3-d]pyrimidin-2-yl)phenyl]-3-[4-(thiomorpholin-4-ylcarbonyl)phenyl]urea], the IC50 on mTOR Kinase (FLAG-TOR) came out at 4.2 nM; on PI3Kα, 3.5 nM; at PI3Kγ, 39 nM.

On to `Cn1ccc2c(N3CCOCC3)nc(-c3ccc(NC(=O)Nc4cccnc4)cc3)nc21` [Compound 44, 1-[4-(7-methyl-4-morpholin-4-yl-7H-pyrrolo[2,3-d]pyrimidin-2-yl)phenyl]-3-pyridin-3-ylurea], for which the IC50 is 1.9 nM at mTOR Kinase (FLAG-TOR), 26 nM on PI3Kα and 144 nM at PI3Kγ.

`CC(C)n1ccc2c(N3CCOCC3)nc(-c3ccc(NC(=O)Nc4ccc(C(=O)N5CCC(N6CCCC6)CC5)cc4)cc3)nc21` [Compound 88, 1-[4-(7-isopropyl-4-morpholin-4-yl-7H-pyrrolo[2,3-d]pyrimidin-2-yl)phenyl]-3-{4-[(4-pyrrolidin-1-ylpiperidin-1-yl)carbonyl]phenyl}urea]: the values for the IC50 at mTOR Kinase (FLAG-TOR), on PI3Kα and at PI3Kγ were 0.59 nM, 4.3 nM and 38 nM, respectively.

As for `CN(C)CCn1ccc2c(N3CCOCC3)nc(-c3ccc(NC(=O)NCCc4c[nH]c5ccccc45)cc3)nc21` [Compound 18, 1-(4-{7-[2-(dimethylamino)ethyl]-4-morpholin-4-yl-7H-pyrrolo[2,3-d]pyrimidin-2-yl}phenyl)-3-[2-(1H-indol-3-yl)ethyl]urea], the figures for the IC50 at mTOR Kinase (FLAG-TOR), at PI3Kα and at PI3Kγ were 102 nM, 1400 nM and 2180 nM, respectively.

For `CCn1ccc2c(N3CCOCC3)nc(-c3ccc(NC(=O)Nc4ccc(C(=O)N5CCC(N6CCCC6)CC5)cc4)cc3)nc21` [Compound 69, 1-[4-(7-ethyl-4-morpholin-4-yl-7H-pyrrolo[2,3-d]pyrimidin-2-yl)phenyl]-3-{4-[(4-pyrrolidin-1-ylpiperidin-1-yl)carbonyl]phenyl}urea], the results for the IC50 at mTOR Kinase (FLAG-TOR), at PI3Kα and on PI3Kγ were 0.8 nM, 2.1 nM and 24 nM, respectively.

Consider `CCn1ccc2c(N3CCOCC3)nc(-c3ccc(NC(=O)Nc4ccc(C(=O)N5CCC(N(C)C)CC5)cc4)cc3)nc21` [Compound 65, 1-(4-{[4-(dimethylamino)piperidin-1-yl]carbonyl}phenyl)-3-[4-(7-ethyl-4-morpholin-4-yl-7H-pyrrolo[2,3-d]pyrimidin-2-yl)phenyl]urea], for which the IC50 at mTOR Kinase (FLAG-TOR) is 1.09 nM; at PI3Kα it was 1.1 nM; at PI3Kγ, 20 nM.

For `CC1(C)CN(C(=O)c2ccc(NC(=O)Nc3ccc(-c4nc(N5CCOCC5)c5ccn(CC(F)(F)F)c5n4)cc3)cc2)CCN1` [Compound 55, 1-{4-[(3,3-dimethylpiperazin-1-yl)carbonyl]phenyl}-3-{4-[4-morpholin-4-yl-7-(2,2,2-trifluoroethyl)-7H-pyrrolo[2,3-d]pyrimidin-2-yl]phenyl}urea], the IC50 at mTOR Kinase (FLAG-TOR) was 0.94 nM; on PI3Kα, < 1.9 nM; on PI3Kγ it was 15 nM.

`CN1CCN(c2ccc(NC(=O)Nc3ccc(-c4nc(N5CCOCC5)c5ccn(CC(F)(F)F)c5n4)cc3)cc2)CC1` [Compound 39, 1-[4-(4-methylpiperazin-1-yl)phenyl]-3-{4-[4-morpholin-4-yl-7-(2,2,2-trifluoroethyl)-7H-pyrrolo[2,3-d]pyrimidin-2-yl]phenyl}urea]: the IC50 on mTOR Kinase (FLAG-TOR) worked out at 1.95 nM; at PI3Kα, 17 nM; at PI3Kγ it was 41 nM.

For `CC(C)n1ccc2c(N3CCOCC3)nc(-c3ccc(NC(=O)Nc4ccncc4)cc3)nc21` [Compound 79, 1-[4-(7-isopropyl-4-morpholin-4-yl-7H-pyrrolo[2,3-d]pyrimidin-2-yl)phenyl]-3-pyridin-4-ylurea], the IC50 at mTOR Kinase (FLAG-TOR) came out at 1.15 nM; at PI3Kα, 28 nM; at PI3Kγ, 193 nM.

Take `NC(=O)Nc1cccc(Cn2ccc3c(N4CCOCC4)nc(-c4ccc(NC(=O)Nc5ccncc5)cc4)nc32)c1` [Compound 20, 1-(4-{7-[3-(carbamoylamino)benzyl]-4-morpholin-4-yl-7H-pyrrolo[2,3-d]pyrimidin-2-yl}phenyl)-3-pyridin-4-ylurea]: the figures for the IC50 at mTOR Kinase (FLAG-TOR), on PI3Kα and on PI3Kγ were 3.5 nM, 61 nM and 196 nM, respectively.

As to `CCn1ccc2c(N3CCOCC3)nc(-c3ccc(NC(=O)Nc4ccc(C(=O)NCCN(C)C)cc4)cc3)nc21` [Compound 62, N-[2-(dimethylamino)ethyl]-4-({[4-(7-ethyl-4-morpholin-4-yl-7H-pyrrolo[2,3-d]pyrimidin-2-yl)phenyl]carbamoyl}amino)benzamide], the figures for the IC50 at mTOR Kinase (FLAG-TOR), at PI3Kα and at PI3Kγ were 0.56 nM, < 2.4 nM and 25 nM, respectively.

Consider `CCn1ccc2c(N3CCOCC3)nc(-c3ccc(NC(=O)Nc4ccc(C(=O)N5CCN(C)CC5)cc4)cc3)nc21` [Compound 63, 1-[4-(7-ethyl-4-morpholin-4-yl-7H-pyrrolo[2,3-d]pyrimidin-2-yl)phenyl]-3-{4-[(4-methylpiperazin-1-yl)carbonyl]phenyl}urea], for which the results for the IC50 on mTOR Kinase (FLAG-TOR), at PI3Kα and on PI3Kγ were 1.75 nM, 1.4 nM and 19 nM, respectively.

Turning to `CN(C)CCCNC(=O)Nc1ccc(-c2nc(N3CCOCC3)c3ccn(CCN(C)C)c3n2)cc1` [Compound 15, 1-(4-{7-[2-(dimethylamino)ethyl]-4-morpholin-4-yl-7H-pyrrolo[2,3-d]pyrimidin-2-yl}phenyl)-3-[3-(dimethylamino)propyl]urea], the IC50 was determined as 3400 nM at mTOR Kinase (FLAG-TOR), 162 nM on PI3Kα and 4360 nM at PI3Kγ.

For the compound `CC(C)(C)NCCn1ccc2c(N3CCOCC3)nc(-c3ccc(NC(=O)Nc4ccncc4)cc3)nc21` [Compound 31, 1-(4-{7-[2-(tert-butylamino)ethyl]-4-morpholin-4-yl-7H-pyrrolo[2,3-d]pyrimidin-2-yl}phenyl)-3-pyridin-4-ylurea], the IC50 was found to be 25.5 nM at mTOR Kinase (FLAG-TOR), 86 nM at PI3Kα and 404 nM at PI3Kγ.

Turning to `CN(C)CCNC(=O)Nc1ccc(-c2nc(N3CCOCC3)c3ccn(CCN(C)C)c3n2)cc1` [Compound 14, 1-[2-(dimethylamino)ethyl]-3-(4-{7-[2-(dimethylamino)ethyl]-4-morpholin-4-yl-7H-pyrrolo[2,3-d]pyrimidin-2-yl}phenyl)urea], the IC50 at mTOR Kinase (FLAG-TOR) stood at 2150 nM; at PI3Kα, 78 nM; on PI3Kγ, 554 nM.

In the case of `CC(C)n1ccc2c(N3CCOCC3)nc(-c3ccc(NC(=O)Nc4ccc(C(=O)N(C)CCN(C)C)cc4)cc3)nc21` [Compound 85, N-[2-(dimethylamino)ethyl]-4-({[4-(7-isopropyl-4-morpholin-4-yl-7H-pyrrolo[2,3-d]pyrimidin-2-yl)phenyl]carbamoyl}amino)-N-methylbenzamide], the IC50 was 0.61 nM on mTOR Kinase (FLAG-TOR), < 1.8 nM on PI3Kα and 34 nM at PI3Kγ.

On to `CN(C)CCNC(=O)c1ccc(NC(=O)Nc2ccc(-c3nc(N4CCOCC4)c4ccn(CC(F)(F)F)c4n3)cc2)cc1` [Compound 52, N-[2-(dimethylamino)ethyl]-4-[({4-[4-morpholin-4-yl-7-(2,2,2-trifluoroethyl)-7H-pyrrolo[2,3-d]pyrimidin-2-yl]phenyl}carbamoyl)amino]benzamide], for which the values for the IC50 on mTOR Kinase (FLAG-TOR), on PI3Kα and at PI3Kγ were 0.3 nM, 1.1 nM and 24 nM, respectively.

On to `O=C(Nc1ccc(-c2nc(N3CCOCC3)c3ccn(CC(F)(F)F)c3n2)cc1)OCCO` [Compound 43, 2-hydroxyethyl{4-[4-morpholin-4-yl-7-(2,2,2-trifluoroethyl)-7H-pyrrolo[2,3-d]pyrimidin-2-yl]phenyl}carbamate], for which the IC50 on mTOR Kinase (FLAG-TOR) was found to be 3.9 nM; on PI3Kα, 570 nM; on PI3Kγ, 1720 nM.
